Assay results from patent publication US9023838B2, “Crystalline form I rosuvastatin zinc salt” (Egis Gyogyszergyar Nyilvanosan Muekoedoe, priority 2009, dated 2015).
Structures can show the parent of a compound that is named as a salt.

What was measured:
[1] = Chemical stability on storage at 25° C., 60% relative humidity (impurity concentrations); format: physicochemical; conditions: for Lactone impurity / M-2 impurity / Total impurities / Total impurities, number of peaks / Change of concentration of impurity M-2 relative to the initial concentration: 25° C.; for Lactone impurity / M-2 impurity / Total impurities / Total impurities, number of peaks: 60% RH; for Increase in the concentration of rosuvastatin lactone: after one month storage; for Change of concentration of impurity M-2 relative to the initial concentration: one month, 60% relative humidity
Method: Chemical stability of amorphous and crystalline Form I rosuvastatin zinc salts (2:1) has been determined by challenging said substances at the storage condition of 25° C., 60% relative humidity.

[2] = Hygroscopicity (water absorbed); format: physicochemical
[3] = listed as amorphous rosuvastatin zinc salt (2:1)

Lactone impurity ([1]; 1 month) [%] | M-2 impurity ([1]; 1 month) [%] | Total impurities ([1]; 1 month) [%] | Total impurities, number of peaks ([1]; 1 month) | Lactone impurity ([1]; Initial) [%] | M-2 impurity ([1]; Initial) [%] | Total impurities ([1]; Initial) [%] | Total impurities, number of peaks ([1]; Initial) | Increase in the concentration of rosuvastatin lactone [1, 3] | Change of concentration of impurity M-2 relative to the initial concentration ([1]; listed as amorphous form of rosuvastatin zinc salt) | Amount of water absorbed [2, 3] [% by weight] | Total amount of the impurities and number of the individual impurities during storage, compared with the amorphous form ([1]; during storage) | Change of concentration of impurity M-2 relative to the initial concentration ([1]; listed as crystalline Form I substance) | Amount of water absorbed ([2]; listed as crystalline Form I rosuvastatin zinc salt (2:1)) [% by weight] | SMILES | Increase in the concentration of rosuvastatin lactone ([1]; listed as crystalline Form I of rosuvastatin zinc salt (2:1))
0.51 | 0.10 | 0.77 | (6 peaks) | 0.10 | 0.03 | 0.38 | (7 peaks) | five-fold increase | three-fold of the initial concentration | 1.88 | – | – | – | CC(C)c1nc(N(C)S(C)(=O)=O)nc(-c2ccc(F)cc2)c1/C=C/[C@@H](O)C[C@@H](O)CC(=O)O [Amorphous, 7-[4-(4-fluorophenyl)-6-isopropyl-2-(methanesulfonyl-methyl-amino)-pyrimidin-S-yl]-(3R,5S)-dihydroxy-hept-6-enoic acid zinc salt (2:1), reference compound] | –
0.32 | 0.08 | 0.49 | (3 peaks) | 0.13 | 0.07 | 0.28 | (3 peaks) | – | – | – | significantly lower | practically unchanged | 0.24 | CC(C)c1nc(N(C)S(C)(=O)=O)nc(-c2ccc(F)cc2)c1/C=C/[C@@H](O)C[C@@H](O)CC(=O)O [Form I, 7-[4-(4-fluorophenyl)-6-isopropyl-2-(methanesulfonyl-methyl-amino)-pyrimidin-5-yl]-(3R,5S)-dihydroxy-hept-6-enoic acid zinc salt (2:1)] | much less prone to form lactone of rosuvastatin
